Measurements as given in patent US11684595B2, “Characterization of the oral microbiome for the non-invasive diagnosis of Barrett's esophagus” (The Trustees of Columbia University in the City of New York, priority 2017, dated 2023).

Legend:
Assay type in all cases: in vivo, human
[1] = test system: culturable bacteria in the esophagus; assay: Culture of esophageal brushings on TSA plates with 5% sheep blood after two weeks of mouth rinse (randomized trial)
Procedure: A randomized controlled trial of chlorhexidine antimicrobial mouth rinse study was conducted in patients scheduled to undergo upper endoscopy. It is postulated that the microbiome may play a role in the development of various esophageal and other upper gastrointestinal diseases such as Barrett's esophagus and esophageal cancer. The microbiome of the upper gastrointestinal tract is heavily influenced by migration of bacteria from the mouth via swallowed secretions. Therefore, it stands to reason that altering the oral microbiome can directly impact the microbiome of the esophagus and gastric cardia. Chlorhexidine mouth rinse (i.e. an antiseptic oral rinse) effectively alters levels of many bacteria in the mouth, including anaerobes and species that are not easily cultured, and also has anti-inflammatory effects. A randomized open-label pilot study was performed to test this hypothesis that use of an antimicrobial mouth rinse alters the microbiome of the lower esophagus and gastric cardia.
(§1) The enrolled subjects were those already scheduled for upper endoscopy for clinical indications. • Subjects were randomized 1:1 to receive 0.12% chlorhexidine mouth rinse or no treatment. • Antimicrobial mouth rinse was used twice daily for two weeks leading up to the endoscopy. The two-week time frame was chosen as a practical end-point for the clinical study, and treatment can be for any desired period of time, i.e. to obtain the desired microbiome mix. • Baseline sample collection: Saliva, oral swab. • Samples collected at follow-up (day of endoscopy): Saliva, oral swab, esophageal brushings, gastric cardia brushings.
(§2) Patients scheduled to undergo upper endoscopy were randomized to treatment with chlorhexidine 0.12% mouth rinse or no mouth rinse for two weeks leading up to the endoscopy. Oral samples (swabs and saliva) were collected at baseline and after two weeks. During the endoscopy, brushings of the esophagus and of the gastric cardia were collected to sample the microbiome.
An interim analysis was performed on the esophageal brushings collected during upper endoscopy. Approximately one half of the bacteria in the esophagus can be readily cultured. Thus, it was hypothesized that a change in the amount of culturable bacteria (either increased or decreased) would reflect a change in the proportion of culturable:non-culturable bacteria in the esophagus. Samples from the first 14 subjects (8 controls not using mouth rinse, 6 subjects using chlorhexidine mouth rinse) were collected, and solutions were prepared from these samples. The samples were then plated onto trypticase soy agar (TSA) plates with 5% sheep blood and incubated for 18 hours at 37° C.

salivary microbiome = assay: 16S rRNA gene sequencing of saliva, randomized trial of antimicrobial mouth rinse; conditions: LEfSe
From the text: as §1, §2
16 S rRNA gene sequencing was performed on all of the biosamples. The V3-V4 hypervariable region for all samples was sequenced using the Illumina HiSeq 2500 in Rapid Mode with 2×300 bp read length (Illumina, San Diego, Calif.). The Greengenes reference database was used. Taxonomic units were clustered at 97% sequence similarity using USEARCH and taxonomic assignments were made using mothur. […]

esophageal microbiome = assay: 16S rRNA gene sequencing of esophageal brushings, randomized trial of antimicrobial mouth rinse
From the text: as §1, §2
16 S rRNA gene sequencing was performed on all of the biosamples. The V3-V4 hypervariable region for all samples was sequenced using the Illumina HiSeq 2500 in Rapid Mode with 2×300 bp read length (Illumina, San Diego, Calif.). The Greengenes reference database was used. Taxonomic units were clustered at 97% sequence similarity using USEARCH and taxonomic assignments were made using mothur. A phylogenetic tree of the contigs was generated with FastTree version 2.1.7.
In order to determine whether chlorhexidine alters the esophageal microbiome, a comparison of the microbiome composition from esophageal samples was performed, comparing the treatment and no treatment arms.

[2] = 0.12% mouth rinse twice daily for two weeks before endoscopy, n = 6, plated on TSA, 18 hours at 37° C.

`[H]/N=C(\N/C(=N/[H])NCCCCCCNC(=N)NC(=N)Nc1ccc(Cl)cc1)Nc1ccc(Cl)cc1` [Chlorhexidine, chlorhexidine] was tested, and the “Mean (SE) CFU/mL from esophageal brushings collected at endoscopy” value [1, 2] was 56,433 (42,654) CFU/mL, the “Mean (SE) number of colonies from esophageal brushings collected at endoscopy” value [1, 2] was 282 (213) and the “numbers of culturable bacteria (colonies and CFU/mL) in the esophagus compared to no chlorhexidine rinse” value ([1]; FIGS. 3A-B) was “increased numbers of culturable bacteria”. For the same compound, the “increase in growth of culturable bacteria compared to the arm not receiving mouth rinse” value ([1]; esophageal brushings, 6 subjects using rinse vs 8 controls) was 68%, the “taxonomic changes in salivary microbiome after treatment compared to baseline” value (salivary microbiome; 2 weeks' treatment, FIG. 4A) was “Numerous taxa were altered” and the “differences in salivary microbiome at follow-up versus no treatment in phylum Firmicutes and species Haemophilus parainfluenzae” value (salivary microbiome; follow-up, FIG. 4B) was “large differences were seen”. For the same compound, the “beta diversity analysis of esophageal microbiome, clustering by treatment group” value (esophageal microbiome; FIG. 5) was “significant clustering by treatment group”, the “esophageal microbiome composition compared to patients receiving no treatment” value (esophageal microbiome; FIGS. 5-6) was “markedly distinct” and the “relative abundance of Haemophilus in the esophageal microbiome” value (esophageal microbiome; vs no treatment arm, FIG. 6) was “significantly decreased”. The “relative abundance of Streptococcus in the esophageal microbiome” value (esophageal microbiome; vs no treatment arm, FIG. 6) was “increased”.
